Test results as given in ChEMBL document CHEMBL1128556, “New spiropiperidines as potent and selective non-peptide tachykinin NK2 receptor antagonists” (J Med Chem, 1995).

Columns and labels:
Substance-K receptor [1] = target: T1, Substance-K receptor (Rattus norvegicus, UniProt P16610); experiment: Binding affinity against tachykinin receptor 2 from rat colon.
T1 sequence (P16610 whole entry): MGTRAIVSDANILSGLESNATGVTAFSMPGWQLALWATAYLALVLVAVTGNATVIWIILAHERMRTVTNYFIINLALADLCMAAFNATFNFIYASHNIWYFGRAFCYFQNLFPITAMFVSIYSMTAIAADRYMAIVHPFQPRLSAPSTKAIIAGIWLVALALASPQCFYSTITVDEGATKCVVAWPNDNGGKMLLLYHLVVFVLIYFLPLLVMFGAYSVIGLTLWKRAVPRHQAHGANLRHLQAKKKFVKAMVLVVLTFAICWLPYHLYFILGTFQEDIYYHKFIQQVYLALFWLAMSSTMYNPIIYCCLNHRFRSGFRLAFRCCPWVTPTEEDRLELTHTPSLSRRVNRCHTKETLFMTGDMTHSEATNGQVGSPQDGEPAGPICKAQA

Substance-K receptor [2] = target: T2, Substance-K receptor (Homo sapiens, UniProt P21452); experiment: The compound was tested for binding affinity against Tachykinin receptor 2 from human expressed in CHO cells; format: cell-based
T2 sequence (P21452 whole entry): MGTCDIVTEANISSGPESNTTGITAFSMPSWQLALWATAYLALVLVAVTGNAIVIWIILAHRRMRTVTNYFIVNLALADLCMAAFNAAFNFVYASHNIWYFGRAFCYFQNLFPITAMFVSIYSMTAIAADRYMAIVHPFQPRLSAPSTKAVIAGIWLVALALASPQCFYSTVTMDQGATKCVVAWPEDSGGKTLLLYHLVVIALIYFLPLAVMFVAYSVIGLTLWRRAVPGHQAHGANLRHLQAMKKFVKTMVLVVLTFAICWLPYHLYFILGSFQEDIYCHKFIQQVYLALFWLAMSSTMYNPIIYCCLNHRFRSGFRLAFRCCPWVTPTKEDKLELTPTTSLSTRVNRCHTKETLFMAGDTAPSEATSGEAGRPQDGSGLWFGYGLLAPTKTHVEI

Substance-K receptor [3] = target: T3, Substance-K receptor (Cavia porcellus, UniProt Q64077); experiment: The compound was tested for binding affinity against Tachykinin receptor 2 from guinea pig trachea
T3 sequence (Q64077 whole entry): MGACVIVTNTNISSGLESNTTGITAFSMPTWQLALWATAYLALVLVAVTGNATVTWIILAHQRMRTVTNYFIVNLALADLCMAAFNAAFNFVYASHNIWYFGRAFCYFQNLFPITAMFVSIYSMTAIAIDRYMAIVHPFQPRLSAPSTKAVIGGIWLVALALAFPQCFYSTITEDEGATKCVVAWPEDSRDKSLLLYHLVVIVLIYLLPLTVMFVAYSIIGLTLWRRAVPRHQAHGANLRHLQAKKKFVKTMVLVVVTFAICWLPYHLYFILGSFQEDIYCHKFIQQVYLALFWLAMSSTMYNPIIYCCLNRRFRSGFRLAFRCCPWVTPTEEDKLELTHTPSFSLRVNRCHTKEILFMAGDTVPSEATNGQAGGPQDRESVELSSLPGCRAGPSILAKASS

Substance-P receptor = Substance-P receptor (Cavia porcellus, UniProt P30547); experiment: The compound was tested for binding affinity against Tachykinin receptor 1 from guinea pig trachea
Chain of Substance-P receptor (P30547 whole entry): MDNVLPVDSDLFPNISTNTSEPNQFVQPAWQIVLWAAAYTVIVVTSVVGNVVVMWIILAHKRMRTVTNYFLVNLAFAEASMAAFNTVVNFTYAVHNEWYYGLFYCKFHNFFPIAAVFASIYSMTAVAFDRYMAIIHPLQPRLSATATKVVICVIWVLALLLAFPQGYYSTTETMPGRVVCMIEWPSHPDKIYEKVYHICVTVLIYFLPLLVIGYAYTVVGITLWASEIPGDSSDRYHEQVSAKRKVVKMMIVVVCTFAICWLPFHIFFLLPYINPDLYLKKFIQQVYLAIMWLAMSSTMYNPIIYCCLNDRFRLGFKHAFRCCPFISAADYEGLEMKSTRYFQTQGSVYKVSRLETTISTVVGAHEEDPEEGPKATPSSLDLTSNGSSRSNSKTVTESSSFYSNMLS

Neuromedin-K receptor = target: T4, Neuromedin-K receptor (Cavia porcellus, UniProt P30098); experiment: The compound was tested for binding affinity against Tachykinin receptor 3 from guinea pig cerebral cortex; format: tissue-based
T4 sequence (P30098 whole entry): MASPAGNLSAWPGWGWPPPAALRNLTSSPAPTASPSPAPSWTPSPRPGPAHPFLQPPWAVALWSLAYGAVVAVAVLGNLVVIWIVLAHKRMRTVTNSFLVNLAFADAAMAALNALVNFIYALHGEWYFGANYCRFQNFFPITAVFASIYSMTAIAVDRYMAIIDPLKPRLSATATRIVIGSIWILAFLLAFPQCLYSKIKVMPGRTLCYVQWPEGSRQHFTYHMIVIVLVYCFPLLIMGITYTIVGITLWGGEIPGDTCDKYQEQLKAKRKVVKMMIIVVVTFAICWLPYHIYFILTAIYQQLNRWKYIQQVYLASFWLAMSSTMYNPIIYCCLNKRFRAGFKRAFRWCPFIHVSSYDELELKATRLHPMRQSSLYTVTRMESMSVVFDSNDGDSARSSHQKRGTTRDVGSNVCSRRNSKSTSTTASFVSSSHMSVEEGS

How did the Ki (Substance-K receptor [1]) turn out when `O=C1OC2(CCN(CCc3c[nH]c4ccc(F)cc34)CC2)CN1Cc1ccc(F)cc1F` was run?
The Ki was 0.00631 µM.

With `O=C1OC2(CCN(CCc3c[nH]c4ccc(F)cc34)CC2)CN1Cc1ccc(F)cc1` as the molecule, how does the Ki (Substance-K receptor [1]) read?
The Ki was 0.00398 µM.

How did the Ki (Substance-K receptor [1]) turn out when `O=C1OC2(CCN(CCc3c[nH]c4ccc(F)cc34)CC2)CN1C(c1ccccc1)c1ccccc1` was run?
Its Ki is 0.02 µM.

Which Ki (Substance-K receptor [1]) does the source give for `COc1ccc(CN2CC3(CCN(CCc4c[nH]c5ccc(F)cc45)CC3)OC2=O)cc1` here?
The Ki was 0.00398 µM.

With `O=C1OC2(CCN(CCc3c[nH]c4ccc(F)cc34)CC2)CN1Cc1ccccc1` as the molecule, how does the Ki (Substance-K receptor [1]) read?
The Ki was 0.00126 µM.

And the Ki (Substance-K receptor [2])?
Its Ki is 0.00794 µM.

What about the Ki (Substance-K receptor [3]) of the same molecule?
The Ki was 0.00251 µM.

What about the Ki (Substance-P receptor) of the same molecule?
The Ki was > 10 µM.

And the Ki (Neuromedin-K receptor)?
The Ki was 79.4 µM.

With `CC(c1ccccc1)N1CC2(CCN(CCc3c[nH]c4ccc(F)cc34)CC2)OC1=O` (configuration not stated) as the molecule, how does the Ki (Substance-K receptor [1]) read?
The Ki was 0.02 µM.

With `O=C1OC2(CCN(CCc3c[nH]c4ccc(F)cc34)CC2)CN1C(=O)c1ccccc1` as the molecule, how does the Ki (Substance-K receptor [1]) read?
Its Ki is 0.00251 µM.

For `Cc1ccccc1CN1CC2(CCN(CCc3c[nH]c4ccc(F)cc34)CC2)OC1=O`, which Ki (Substance-K receptor [1]) is on record?
The Ki was 0.0126 µM.

For `CC(=O)N(Cc1ccccc1)CC1(O)CCN(CCc2c[nH]c3ccc(F)cc23)CC1`, which Ki (Substance-K receptor [1]) is on record?
Its Ki is 0.00158 µM.

`O=C1OC2(CCN(CCc3c[nH]c4ccc(F)cc34)CC2)CN1Cc1cccc(F)c1` was tested. Which Ki (Substance-K receptor [1]) did it give?
The Ki was 0.00158 µM.

For `Cc1ccc(S(=O)(=O)N2CC3(CCN(CCc4c[nH]c5ccc(F)cc45)CC3)OC2=O)cc1`, which Ki (Substance-K receptor [1]) is on record?
Its Ki is 0.00501 µM.

`Cc1ccc(CN2CC3(CCN(CCc4c[nH]c5ccc(F)cc45)CC3)OC2=O)cc1` was tested. Which Ki (Substance-K receptor [1]) did it give?
The Ki was 0.001 µM.

How did the Ki (Substance-K receptor [1]) turn out when `O=C1OC2(CCN(CCc3c[nH]c4ccc(F)cc34)CC2)CN1Cc1cccnc1` was run?
Its Ki is 0.2 µM.

For `Fc1ccc2[nH]cc(CCN3CCC4(CC3)CCN(Cc3ccccc3)C4)c2c1`, which Ki (Substance-K receptor [1]) is on record?
Its Ki is 0.00631 µM.

With `O=C1OC2(CCN(CCc3c[nH]c4ccc(F)cc34)CC2)CN1Cc1ccc(Cl)cc1` as the molecule, how does the Ki (Substance-K receptor [1]) read?
The Ki was 0.01 µM.

With `COC(=O)c1cccc(CN2CC3(CCN(CCc4c[nH]c5ccc(F)cc45)CC3)OC2=O)c1` as the molecule, how does the Ki (Substance-K receptor [1]) read?
Its Ki is 0.0794 µM.

`O=C1OC2(CCN(CCc3c[nH]c4ccc(F)cc34)CC2)CN1Cc1ccc2ccccc2c1` was tested. Which Ki (Substance-K receptor [1]) did it give?
The Ki was 0.02 µM.

`O=C1NC2(CCN(CCc3c[nH]c4ccc(F)cc34)CC2)CN1Cc1ccccc1` was tested. Which Ki (Substance-K receptor [1]) did it give?
Its Ki is 0.00126 µM.

For `O=C1OC2(CCN(CCc3c[nH]c4ccc(F)cc34)CC2)CN1Cc1cccc2ccccc12`, which Ki (Substance-K receptor [1]) is on record?
The Ki was 0.00794 µM.

`O=C1OC2(CCN(CCc3c[nH]c4ccc(F)cc34)CC2)CN1Cc1ccncc1` was tested. Which Ki (Substance-K receptor [1]) did it give?
Its Ki is 0.1 µM.

Which Ki (Substance-K receptor [1]) does the source give for `CN1CC2(CCN(CCc3c[nH]c4ccc(F)cc34)CC2)OC1=O` here?
The Ki was 1.58 µM.

Which Ki (Substance-K receptor [1]) does the source give for `N#Cc1ccc(CN2CC3(CCN(CCc4c[nH]c5ccc(F)cc45)CC3)OC2=O)cc1` here?
Its Ki is 0.1 µM.

How did the Ki (Substance-K receptor [1]) turn out when `O=C1OC2(CCN(CCc3c[nH]c4ccc(F)cc34)CC2)CN1CCc1ccccc1` was run?
Its Ki is 0.01 µM.

With `O=C1CC2(CCN(CCc3c[nH]c4ccc(F)cc34)CC2)CN1Cc1ccccc1` as the molecule, how does the Ki (Substance-K receptor [1]) read?
The Ki was 0.00126 µM.

With `O=C1OC2(CCN(CCc3c[nH]c4ccc(F)cc34)CC2)CN1Cc1ccccn1` as the molecule, how does the Ki (Substance-K receptor [1]) read?
Its Ki is 0.0158 µM.

With `O=C1NC2(CCN(CCc3c[nH]c4ccc(F)cc34)CC2)C(=O)N1Cc1ccccc1` as the molecule, how does the Ki (Substance-K receptor [1]) read?
Its Ki is 0.126 µM.

For `OC1(CNCc2ccccc2)CCN(CCc2c[nH]c3ccc(F)cc23)CC1`, which Ki (Substance-K receptor [1]) is on record?
Its Ki is 0.1 µM.

`O=C1CC2(CCN(CCc3c[nH]c4ccc(F)cc34)CC2)NN1Cc1ccccc1` was tested. Which Ki (Substance-K receptor [1]) did it give?
Its Ki is 0.01 µM.
